Results taken from patent US8580799B2 (priority 2008, dated 2013).
Where two headings read alike, the source gives them in different places.

Experiment: Measurement of logP values by HPLC on reversed phase columns (EEC directive 79/831 Annex V.A8)
Format: physicochemical
Settings: for chromatographic logP: reversed phase HPLC column
[1] = method [b]: LC-MS at pH 2.7 with 0.1% formic acid in water and acetonitrile, linear gradient 10% to 95% acetonitrile
[2] = method [a]: pH 2.3 with 0.1% phosphoric acid and acetonitrile as eluent
[3] = HCOOH (formic acid) method, read-out: log P(HCOOH)
[4] = method [b]: LC-MS at pH 2.7 with 0.1% formic acid in water and acetonitrile, linear gradient 10% to 95% acetonitrile, read-out: logp

For `CCCNc1cccc(CON=C(c2ccccc2)c2nsnc2C)n1` [Example 34], the logp [1] was 2.11^[b].
For `Nc1ccnc(CON=C(c2ccccc2)c2nsnc2C(F)(F)F)n1` [Example 8], the logp [2] was 1.75^[a].
With `CCCCC#Cc1nc(CON=C(c2ccc(Cl)cc2)c2nnsc2C)cs1` [Example 4] the logp [1] was 5.68^[b].
Work on `CC#CCOC(=O)Nc1cccc(CON=C(c2ccccc2)c2nsnc2C)n1` [Example 25, But-2-yn-1-yl {6-[({[(4-methyl-1,2,5-thiadiazol-3-yl)(phenyl)methylidene]amino}oxy)-methyl]pyridin-2-yl}carbamate] yielded a chromatographic logP [3] of 4.28 and a chromatographic logP [4] of 4.28.
With `Cc1nsnc1/C(=N\OCc1cccc(N)n1)c1ccccc1` [6-[({[(Z)-(4-methyl-1,2,5-thiadiazol-3-yl)(phenyl)methylene]amino}oxy)-methyl]pyridin-2-amine] the chromatographic logP [3] was 1.54.
In the case of `Cc1nsnc1C(=NOCc1cccc(NCCCc2ccccc2)n1)c1ccccc1` [Example 36], the logp [1] was 2.98^[b].
In the case of `Cn1nccc1C(=NOCc1csc(Br)n1)c1ccccc1` [Example 49], the logp [1] was 3.39^[b].
With `CCCCC#Cc1nc(CON=C(c2ccc(F)cc2)c2nonc2C)cs1` [Example 44] the logp [1] was 5.99^[b].
For `CCCCC#Cc1nc(CON=C(c2ccccc2)c2nonc2C)cs1` [Example 45], the logp [1] was 5.51^[b].
With `CCCCC#Cc1nc(CON=C(c2ccccc2)c2nsnc2C)cs1` [Example 41] the logp [1] was 5.72^[b].
In the case of `Nc1nc(CON=C(c2ccccc2)c2nsnc2C(F)(F)F)cs1` [Example 10], the logp [2] was 2.26^[a].
In the case of `CCCCCCC(=O)Nc1nc(CON=C(c2ccccc2)c2ccnn2C)cs1` [Example 56], the logp [1] was 4.18^[b].
In the case of `O=C(CCCc1ccccc1)Nc1ccnc(CON=C(c2ccccc2)c2nsnc2C(F)(F)F)n1` [Example 12], the logp [2] was 4.65^[a].
For `CCOC(=O)Nc1nc(CON=C(c2ccccc2)c2ccnn2C)cs1` [Example 64], the logp [1] was 3^[b].
In the case of `CCCCCCNc1cccc(CON=C(c2ccccc2)c2nsnc2C(F)(F)F)n1` [Example 39], the logp [1] was 3.44^[b].
Compound `CCCCCCN(C(=O)OC(C)(C)C)c1cccc(CON2C(=O)c3ccccc3C2=O)n1` has a chromatographic logP [3] of 5.48.
With `CCCCNc1cccc(CON=C(c2ccccc2)c2nsnc2C)n1` [Example 32] the logp [1] was 2.41^[b].
With `CC(C)CC(=O)Nc1ccnc(CON=C(c2ccccc2)c2nsnc2C(F)(F)F)n1` [Example 14] the logp [2] was 4.09^[a].
`Nc1nc(CON2C(=O)c3ccccc3C2=O)cs1` [2-[(2-amino-1,3-thiazol-4-yl)methoxy]-1H-isoindole-1,3(2H)-dione] showed a chromatographic logP [3] of 0.74.
For `CCCCCCCOC(=O)Nc1cccc(CON=C(c2ccccc2)c2nsnc2C)n1` [Example 26], the logp [1] was 6.42^[b].
In the case of `Cn1nccc1C(=NOCc1csc(NC(=O)OCCCCCl)n1)c1ccccc1` [Example 57], the logp [1] was 3.65^[b].
With `Cn1nccc1C(=NOCc1csc(N)n1)c1ccccc1` [Example 48] the logp [1] was 1.5^[b].
With `C=CCCCCNc1cccc(CON=C(c2ccccc2)c2nsnc2C)n1` [Example 35] the logp [1] was 2.78^[b].
In the case of `Cc1nsnc1C(=NOCc1cccc(N(C(=O)OC(C)(C)C)C(=O)OC(C)(C)C)n1)c1ccccc1` [Example 29], the logp [1] was 5.47^[b].
For `CCCCCOC(=O)Nc1cccc(CON=C(c2ccccc2)c2nsnc2C)n1` [Example 20], the logp [1] was 5.5^[b].
For `CCCCOC(=O)Nc1nc(CON=C(c2ccccc2)c2ccnn2C)cs1` [Example 58], the logp [1] was 3.76^[b].
With `CCCCCOC(=O)Nc1cccc(CON=C(c2ccccc2)c2nsnc2C(F)(F)F)n1` [Example 19] the logp [2] was 5.68^[a].
For `CCCCC#Cc1nc(CON=C(c2ccccc2F)c2nonc2C)cs1` [Example 47], the logp [1] was 5.39^[b].
For `O=C(Nc1ccnc(CON=C(c2ccccc2)c2nsnc2C(F)(F)F)n1)c1ccccc1` [Example 11], the logp [2] was 4.14^[a].
For `Cn1nccc1C(=NOCc1csc(NC(=O)OC(C)(C)C)n1)c1ccccc1` [Example 63], the logp [1] was 3.69^[b].
With `CCCCC#Cc1nc(CON=C(c2ccccc2)c2nsnc2C(F)(F)F)cs1` [Example 40] the logp [1] was 6.37^[b].
For `CCNc1cccc(CON=C(c2ccccc2)c2nsnc2C)n1` [Example 33], the logp [1] was 1.89^[b].
For `O=C1c2ccccc2C(=O)N1OCc1csc(Br)n1` [2-[(2-bromo-1,3-thiazol-4-yl)methoxy]-1H-isoindole-1,3(2H)-dione], the chromatographic logP [3] was 2.39.
`CCCCCCN(C(=O)OC(C)(C)C)c1cccc(CON)n1` showed a chromatographic logP [3] of 3.42.
With `CCCCCCOC(=O)Nc1nc(CON=C(c2ccccc2)c2ccnn2C)cs1` [Example 59] the logp [1] was 4.59^[b].
`Cc1nsnc1C(=NOCc1cccc(NC(=O)OC(C)(C)C)n1)c1ccccc1` [Example 30, tert-butyl {6-[({[(4-methyl-1,2,5-thiadiazol-3-yl)(phenyl)methylene]-amino}oxy)methyl]pyridin-2-yl}carbamate] gave a chromatographic logP [3] of 4.97 and a chromatographic logP [4] of 4.97.
For `Cc1nsnc1C(=NOCc1cccc(NC(=O)OC2CCCC2)n1)c1ccccc1` [Example 21], the logp [1] was 5.11^[b].
In the case of `CCCCCNc1cccc(CON=C(c2ccccc2)c2nsnc2C)n1` [Example 38], the logp [1] was 2.7^[b].
With `CCCCC(CC)COC(=O)Nc1cccc(CON=C(c2ccccc2)c2nsnc2C)n1` (stereo not shown) [Example 27] the logp [1] was 6.76^[b].
For `C#CCCOC(=O)Nc1nc(CON=C(c2ccccc2)c2ccnn2C)cs1` [Example 61], the logp [1] was 3.11^[b].
With `Cn1nccc1C(=NOCc1csc(NC(=O)COc2ccccc2)n1)c1ccccc1` [Example 50] the logp [1] was 3.55^[b].
With `Cn1nccc1C(=NOCc1csc(C#CC2CC2)n1)c1ccccc1` [Example 62] the logp [1] was 3.87^[b].
With `CCCCCCOC(=O)Nc1cccc(CON=C(c2ccccc2)c2nsnc2C)n1` [Example 23] the logp [1] was 5.99^[b].
In the case of `CCCCCOC(=O)Nc1nc(CON=C(c2ccccc2)c2ccnn2C)cs1` [Example 60], the logp [1] was 4.16^[b].
With `Cn1nccc1C(=NOCc1csc(NC(=O)Cc2ccccc2)n1)c1ccccc1` [Example 53] the logp [1] was 3.42^[b].
In the case of `Cc1nsnc1C(=NOCc1cccc(NC(=O)OCc2ccccc2)n1)c1ccccc1` [Example 22], the logp [1] was 4.92^[b].
For `CCCCC(=O)Nc1nc(CON=C(c2ccccc2)c2ccnn2C)cs1` [Example 55], the logp [1] was 3.39^[b].
With `Cc1nsnc1C(=NO)c1ccccc1` [N-hydroxy-1-(4-methyl-1,2,5-thiadiazol-3-yl)-1-phenylmethanimine] the chromatographic logP [3] was 2.26.
In the case of `CCCCCCNc1cccc(CON=C(c2cccc(F)c2)c2nonc2C)n1` [Example 42], the logp [1] was 3.57^[b].
In the case of `CCCCCCNc1cccc(CON=C(c2ccccc2)c2nonc2C)n1` [Example 43], the logp [1] was 3.31^[b].
With `O=C(Cc1ccccc1)Nc1ccnc(CON=C(c2ccccc2)c2nsnc2C(F)(F)F)n1` [Example 15] the logp [2] was 4.09^[a].
For `CCCCCC(=O)Nc1ccnc(CON=C(c2ccccc2)c2nsnc2C(F)(F)F)n1` [Example 17], the logp [2] was 4.54^[a].
For `CC(C)(C)C(=O)Nc1ccnc(CON=C(c2ccccc2)c2nsnc2C(F)(F)F)n1` [Example 16], the logp [2] was 4.24^[a].
With `CCCCC#Cc1nc(CON=C(c2cccc(F)c2)c2nnsc2C)cs1` [Example 7] the logp [1] was 5.25^[b].
For `C=CCCOC(=O)Nc1cccc(CON=C(c2ccccc2)c2nsnc2C)n1` [Example 24], the logp [1] was 4.65^[b].
In the case of `CCCCCC(=O)Nc1nc(CON=C(c2ccccc2)c2ccnn2C)cs1` [Example 52], the logp [1] was 3.8^[b].
With `Cn1nccc1C(=NOCc1csc(NC(=O)CCc2ccccc2)n1)c1ccccc1` [Example 51] the logp [1] was 3.69^[b].
With `CCCCC#Cc1nc(CON=C(c2cccc(F)c2)c2nonc2C)cs1` [Example 46] the logp [1] was 5.59^[b].
With `Cc1nsnc1C(=NOCc1cccc(NC(=O)OCCCCC(F)(F)F)n1)c1ccccc1` [Example 28] the logp [1] was 4.97^[b].
Compound `CCCCCCN(C(=O)OC(C)(C)C)c1cccc(CO)n1` [tert-butyl hexyl[6-(hydroxymethyl)pyridin-2-yl]carbamate] has a chromatographic logP [3] of 3.94.
With `Cn1nccc1C(=NOCc1csc(NC(=O)C(C)(C)C)n1)c1ccccc1` [Example 54] the logp [1] was 3.46^[b].
Compound `CCCCC#Cc1nc(CON)cs1` [4-[(aminooxy)methyl]-2-(hex-1-yn-1-yl)-1,3-thiazole] has a chromatographic logP [3] of 1.76.
With `CCCCC#Cc1nc(CON2C(=O)c3ccccc3C2=O)cs1` [2-{[2-(hex-1-yn-1-yl)-1,3-thiazol-4-yl]methoxy}-1H-isoindole-1,3(2H)-dione] the chromatographic logP [3] was 3.78.
With `CCCCCOC(=O)Nc1ccnc(CON=C(c2ccccc2)c2nsnc2C(F)(F)F)n1` [Example 9] the logp [2] was 4.92^[a].
For `CCCCC#Cc1nc(CON=C(c2ccc(F)cc2)c2nnsc2C)cs1` [Example 5], the logp [1] was 5.19^[b].
`CCCCCCNc1cccc(CON=C(c2ccccc2)c2nsnc2C)n1` [Example 31, N-hexyl-6-[({[(4-methyl-1,2,5-thiadiazol-3-yl)(phenyl)methylidene]amino}oxy)methyl]-pyridin-2-amine] showed a chromatographic logP [3] of 3.11 and a chromatographic logP [4] of 3.11.
With `O=C1c2ccccc2C(=O)N1c1cccc(CON=C(c2ccccc2)c2nsnc2C(F)(F)F)n1` [Example 18] the logp [2] was 4.31^[a].
With `Cc1nsnc1/C(=N\OCc1cccc(N2C(=O)c3ccccc3C2=O)n1)c1ccccc1` [2-{6-[({[(Z)-(4-methyl-1,2,5-thiadiazol-3-yl)(phenyl)methylene]amino}-oxy)methyl]pyridin-2-yl}-1H-isoindole-1,3(2H)-dione] the chromatographic logP [3] was 3.99.
In the case of `COCCOCC(=O)Nc1ccnc(CON=C(c2ccccc2)c2nsnc2C(F)(F)F)n1` [Example 13], the logp [2] was 3.46^[a].
For `CCCCCCNc1cccc(CON=C(c2cccc(F)c2)c2nnsc2C)n1` [Example 1, 6-[({[(3-fluorophenyl)(5-methyl-1,2,3-thiadiazol-4-yl)methylene]amino}oxy)methyl]-N-hexylpyridin-2-amine], the chromatographic logP [3] was 3.06 and the chromatographic logP [4] was 3.06.
In the case of `CCCCC#Cc1nc(CON=C(c2cccc(Cl)c2)c2nnsc2C)cs1` [Example 6, 1-(3-chlorophenyl)-N-([2-(hex-1-yn-1-yl)-1,3-thiazol-4-yl]methoxy)-1-(5-methyl-1,2,3-thiadiazol-4-yl)methanimine], the chromatographic logP [3] was 5.68 and the chromatographic logP [4] was 5.68.
